Results from patent US7417045B2, “Heterocyclic substituted pyridine or phenyl compounds with CXCR3 antagonist activity” (Schering Corporation, priority 2005, dated 2008).
pIC50: −log10 of the molar value.

Target: T1, human CXCR3 (N-delta 4) (Homo sapiens, UniProt P49682)
T1 construct: CD8 leader (N); Flag tag; expressed in transfected cells; membranes
T1 sequence (P49682 5-368 limits assumed): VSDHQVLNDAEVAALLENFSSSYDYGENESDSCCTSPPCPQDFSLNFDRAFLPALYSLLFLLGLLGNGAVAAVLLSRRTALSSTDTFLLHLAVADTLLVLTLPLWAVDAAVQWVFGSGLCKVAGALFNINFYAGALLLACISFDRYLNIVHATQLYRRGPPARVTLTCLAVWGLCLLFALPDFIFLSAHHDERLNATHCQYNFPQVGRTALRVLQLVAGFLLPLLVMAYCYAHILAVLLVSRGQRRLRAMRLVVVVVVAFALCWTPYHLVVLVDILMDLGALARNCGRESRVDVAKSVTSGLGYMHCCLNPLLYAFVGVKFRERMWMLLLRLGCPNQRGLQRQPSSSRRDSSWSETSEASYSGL
Test: Human CXCR3 (N-delta 4) Scintillation Proximity Assay (SPA), [125I] IP-10 binding
Details: IC50 rating; [125I] IP-10 displacement, Ba/F3-hCXCR3 (N-delta 4) membranes
Source text: The inventive compounds can readily be evaluated to determine activity at The CXCR3 receptors by known methods, such as, for example, Development of Human CXCR3 (N-delta 4) Binding Assay.
Cloning and Expression of Human CXCR3 (N-Delta 4):
The DNA encoding human CXCR3 was cloned by PCR using human genomic DNA (Promega, Madison, Wis.) as a template. The PCR primers were designed based on the published sequence of human orphan receptor GPR9 (1) with incorporated restriction sites, a Kozak consensus sequence, CD8 leader and Flag tag. The PCR product was subcloned into the mammalian expression vector pME18Sneo, a derivative of the SR-alpha expression vector (designated as pME18Sneo-hCXCR3 (N-delta 4).
IL-3-dependent mouse pro-B cells Ba/F3 were transfected by electroporation in 0.4 ml Dulbecco's PBS containing 4×10^6 cells with 20 μg of pME18Sneo-hCXCR3 (N-delta 4) plasmid DNA. Cells were pulsed at 400 Volts, 100 OHMs, 960 μFd. The transfected cells were under selection with 1 mg/ml G418 (Life Technologies, Gaithersburg, Md.). G418-resistant Ba/F3 clones were screened for CXCR3 expression by specific binding of [^125I] IP-10 (NEN Life Science Products, Boston, Mass.).
Preparation of Ba/F3-hCXCR3 (N-Delta 4) Membranes
Ba/F3 cells expressing human CXCR3 (N-delta 4) were pelleted and resuspended in the lysis buffer containing 10 mM HEPES, pH 7.5 and Complete® protease inhibitors (1 tablet per 100 ml) (Boehringer Mannheim, Indianapolis, Ind.) at a cell density of 20×10^6 cells per ml. After 5 minutes incubation on ice, cells were transferred to 4639 cell disruption bomb (Parr Instrument, Moline, Ill.) and applied with 1,500 psi of nitrogen for 30 minutes on ice. Large cellular debris was removed by centrifugation at 1,000× g. Cell membrane in the supernatant was sedimented at 100,000× g. The membrane was resuspended in the lysis buffer supplemented with 10% sucrose and stored at −80° C. Total protein concentration of the membrane was determined by BCA method from Pierce (Rockford, Ill.).
Human CXCR3 (N-Delta 4) Scintillation Proximity Assay (SPA)
For each assay point, 2 μg of membrane was preincubated for 1 hr with 300 μg wheat germ agglutinin (WGA) coated SPA beads (Amersham, Arlington Heights, Ill.) in the binding buffer (50 mM HEPES, 1 mM CaCl2, 5 mM MgCl2, 125 mM NaCl, 0.002% NaN3, 1.0% BSA) at room temperature. The beads were spun down, washed once, resuspended in the binding buffer and transferred to a 96-well Isoplate (Wallac, Gaithersburg, Md.). 25 pM of [^125I] IP-10 with tested compounds in a series of titration were added to start the reaction. After 3 hr reaction at room temperature, the amount of [^125I] IP-10 bound to the SPA beads was determined with a Wallac 1450 Microbeta counter.

Row | pIC50 | SMILES
1 | < 7.00 | CC[C@H]1CN(c2ncc(C3=NCCN3)cc2Cl)CCN1C1CCN(Cc2ccc(C3CC3CO)cc2)CC1 (some centres unmarked) [Compound 153]
2 | > 7.60 | CC[C@H]1CN(c2ncc(-c3ncc[nH]3)cc2Cl)CCN1C1CCN([C@H](C(N)=O)c2ccc(Cl)cc2)CC1 [Compound 89]
3 | 7.00 to 7.60 | CC[C@H]1CN(c2ncc(C3=NC(C)(C)CN3)cc2Cl)CCN1C1CCN(C(=O)c2ccc(Cl)cc2)CC1 [Compound 105]
4 | 7.00 to 7.60 | CC[C@H]1CN(c2ncc(-c3cnco3)cc2Cl)CCN1C1CCN(Cc2ccc(Cl)cc2)CC1 [Compound 108]
5 | > 7.60 | C[C@@H]1CN(C2CCN(Cc3ccc(Cl)cc3F)CC2)[C@@H](C)CN1c1ncc(-c2ncc[nH]2)cc1Cl [Compound 79]
6 | > 7.60 | CC[C@H]1CN(c2ncc(-c3ncc[nH]3)cc2Cl)CCN1C1CCN(Cc2ccc(Cl)cc2C(C)(C)O)CC1 [Compound 31]
7 | > 7.60 | CC[C@H]1CN(c2ncc(-c3nnco3)cc2Cl)CCN1C1CCN(Cc2ccc(Cl)cc2F)CC1 [Compound 27]
8 | > 7.60 | CC[C@H]1CN(c2ncc(-c3ncc[nH]3)cc2Cl)CCN1C1CCN([C@@H](C(N)=O)c2ccc(Cl)cc2)CC1 [Compound 91]
9 | 7.00 to 7.60 | CC[C@H]1CN(c2ncc(-c3nnc(CO)o3)cc2Cl)CCN1C1CCN(Cc2ccc(Cl)cc2F)CC1 [Compound 106]
10 | < 7.00 | CC[C@H]1CN(c2ncc(-c3ncc[nH]3)cc2Cl)CCN1C1CCN(Cc2ccc3[nH]ccc3c2)CC1 [Compound 138]
11 | < 7.00 | CC[C@H]1CN(c2ncc(C3=NCCN3)cc2Cl)CCN1C1CCN(Cc2ccc(C3CC3C(C)(C)O)cc2)CC1 (some centres unmarked) [Compound 152]
12 | < 7.00 | CC[C@H]1CN(c2ncc(-c3ncc[nH]3)cc2Cl)CCN1C1CCN(CC(=O)c2ccc(Cl)cc2)CC1 [Compound 164]
13 | < 7.00 | CC[C@H]1CN(c2ncc(C3=NCCN3C(=O)c3ccc(Cl)cc3)cc2Cl)CCN1C1CCN(C(=O)c2ccc(Cl)cc2)CC1 [Compound 146]
14 | < 7.00 | CC[C@H]1CN(c2ncc(-c3ncc[nH]3)cc2Cl)CCN1C1CCN([C@H](C(=O)NC2CC2)c2ccc(Cl)cc2)CC1 [Compound 149]
15 | > 7.60 | CC[C@H]1CN(c2ncc(-c3ncc[nH]3)cc2Cl)CCN1C1CCN(C(=O)c2ccc(C#N)nc2)CC1 [Compound 68]
16 | > 7.60 | CC[C@H]1CN(c2ncc(-c3ncc[nH]3)cc2Cl)CCN1C1CCN([C@@H](C(=O)NCC(F)(F)F)c2ccc(Cl)cc2)CC1 [Compound 99]
17 | > 7.60 | CC[C@H]1CN(c2ncc(-c3nc4cc(F)ccc4[nH]3)cc2Cl)CCN1C1CCN(Cc2ccc(Cl)cc2F)CC1 [Compound 96]
18 | > 7.60 | CC[C@H]1CN(c2ncc(-c3nccn3C(=O)c3ccc(Cl)cc3)cc2Cl)CCN1C1CCN(C(=O)c2ccc(Cl)cc2)CC1 [Compound 55]
19 | 7.00 to 7.60 | CC[C@H]1CN(c2ncc(-c3nccn3S(C)(=O)=O)cc2Cl)CCN1C1CCN(Cc2ccc(Cl)cc2F)CC1 [Compound 121]
20 | > 7.60 | CC[C@H]1CN(c2ncc(-c3ncc[nH]3)cc2Cl)CCN1C1CCN(C(=O)c2ccc(C(=O)OC)cc2)CC1 [Compound 71]
21 | > 7.60 | CC[C@H]1CN(c2ncc(-c3ncc[nH]3)cc2Cl)CCN1C1CCN(Cc2ccc(Cl)cc2F)CC1 [Compound 4]
22 | > 7.60 | CC[C@H]1CN(c2ncc(-c3nnc(C)o3)cc2Cl)CCN1C1CCN(Cc2ccc(Cl)cc2F)CC1 [Compound 70]
23 | 7.00 to 7.60 | CC[C@H]1CN(c2ncc(-c3ncc[nH]3)cc2Cl)CCN1C1CCN(Cc2ccc(C#CC(C)(C)NS(N)(=O)=O)cc2)CC1 [Compound 114]
24 | 7.00 to 7.60 | CC[C@H]1CN(c2ncc(C3=NCCN3)cc2Cl)CCN1C1CCN(Cc2ccc(C#CC(C)(C)NS(N)(=O)=O)cc2)CC1 [Compound 131]
25 | > 7.60 | CC[C@H]1CN(c2ncc(C3=NCCN3)cc2Cl)CCN1C1CCN(C(=O)c2ccc(Cl)cc2I)CC1 [Compound 85]

Row | pIC50 | SMILES
26 | < 7.00 | CC[C@H]1CN(c2ncc(-c3noc(=O)[nH]3)cc2Cl)CCN1C1CCN(Cc2ccc(Cl)cc2F)CC1 [Compound 160]
27 | < 7.00 | CC[C@H]1CN(c2ncc(-c3ncc[nH]3)cc2Cl)CCN1C1CCN([C@H](C(=O)NC)c2ccc(Cl)cc2)CC1 [Compound 166]
28 | > 7.60 | CC[C@H]1CN(c2ncc(C3=NCCN3)cc2Cl)CCN1C1CCN(C(=O)c2ccc(Br)cc2)CC1 [Compound 56]
29 | > 7.60 | CC[C@H]1CN(c2ncc(C3=NCCN3)cc2Cl)CCN1C1CCN(Cc2ccc(C#CCOC)cc2)CC1 [Compound 34]
30 | 7.00 to 7.60 | CC[C@H]1CN(c2ncc(-c3nnco3)cc2Cl)CCN1C1CCN(C(=O)c2ccc(Br)cc2)CC1 [Compound 129]
31 | < 7.00 | CC[C@H]1CN(c2ncc(-c3nccn3C(c3ccccc3)(c3ccccc3)c3ccccc3)cc2Cl)CCN1C1CCN(Cc2ccc(Cl)cc2F)CC1 [Compound 145]
32 | 7.00 to 7.60 | CC[C@H]1CN(c2ncc(-c3ncc[nH]3)cc2Cl)CCN1C1CCN([C@H](C(=O)OC)c2ccc(Br)cc2)CC1 [Compound 127]
33 | > 7.60 | CC[C@H]1CN(c2ncc(-c3ncc[nH]3)cc2Cl)CCN1C1CCN([C@H](CO)c2ccc(Cl)cc2)CC1 [Compound 90]
34 | > 7.60 | CC[C@H]1CN(c2ncc(-c3ncc[nH]3)cc2Cl)CCN1C1CCN(C(=O)c2ccc(Br)cc2)CC1 [Compound 41]
35 | < 7.00 | CC[C@H]1CN(c2ncc(-c3ncco3)cc2Cl)CCN1C1CCN(Cc2ccc(Cl)cc2F)CC1 [Compound 140]
36 | > 7.60 | CC[C@H]1CN(c2ncc(-c3ncc[nH]3)cc2Cl)CCN1C1CCN(Cc2c(F)cc(F)cc2F)CC1 [Compound 49]
37 | > 7.60 | CC[C@H]1CN(c2ncc(-c3ncc[nH]3)cc2Cl)CCN1C1CCN(Cc2ccc(-n3cncn3)cc2)CC1 [Compound 76]
38 | > 7.60 | CC[C@H]1CN(c2ncc(-c3ncc[nH]3)cc2Cl)CCN1C1CCN(C(=O)c2ccc(C#CCOC)cc2)CC1 [Compound 92]
39 | > 7.60 | CC[C@H]1CN(c2ncc(-c3ncc[nH]3)cc2Cl)CCN1C1CCN(Cc2ccc(Cl)cc2-c2ncon2)CC1 [Compound 48]
40 | < 7.00 | CC[C@H]1CN(c2ncc(-c3ncon3)cc2Cl)CCN1C1CCN(Cc2ccc(Cl)cc2F)CC1 [Compound 144]
41 | 7.00 to 7.60 | CC[C@H]1CN(c2ncc(-c3ncc[nH]3)cc2Cl)CCN1C1CCN(CCCCc2ccc(Cl)cc2)CC1 [Compound 103]
42 | > 7.60 | CC[C@H]1CN(c2ncc(-c3ncc[nH]3)cc2Cl)CCN1C1CCN(Cc2ccc(Cl)cc2C(N)=O)CC1 [Compound 9]
43 | > 7.60 | CC[C@H]1CN(c2ncc(-c3nnc(CO)o3)cc2Cl)CCN1C1CCN(C(CO)c2ccc(Cl)cc2)CC1 (some centres unmarked) [Compound 39]
44 | < 7.00 | CC[C@H]1CN(c2ncc(-c3ncc[nH]3)cc2Cl)CCN1C1CCN(C(=O)c2ccc(N3CCCC3=O)cc2)CC1 [Compound 173]
45 | > 7.60 | CC[C@H]1CN(c2ncc(C3=NCCN3)cc2Cl)CCN1C1CCN(Cc2ccc(Cl)cc2C(=O)OC)CC1 [Compound 61]
46 | > 7.60 | CC[C@H]1CN(c2ncc(-c3ncc[nH]3)cc2Cl)CCN1C1CCN(CCCC(=O)c2ccc(Cl)cc2)CC1 [Compound 83]
47 | > 7.60 | CC[C@H]1CN(c2ncc(-c3ncc[nH]3)cc2Cl)CCN1C1CCN(Cc2ccc(Cl)cc2C(=O)NC)CC1 [Compound 53]
48 | > 7.60 | CC[C@H]1CN(c2ncc(-c3n[nH]c(=O)[nH]3)cc2Cl)CCN1C1CCN(Cc2ccc(Cl)cc2F)CC1 [Compound 88]
49 | > 7.60 | CCNc1nnc(-c2cnc(N3CCN(C4CCN(C(=O)c5ccc(Cl)nc5N)CC4)[C@@H](CC)C3)c(Cl)c2)o1 [Compound 73]
50 | < 7.00 | CC[C@H]1CN(c2ncc(-c3ncc[nH]3)cc2Cl)CCN1C1CCN(C(C)c2ccc(N3CCOCC3)cc2)CC1 (some centres unmarked) [Compound 139]
